Measured values published in patent publication US11351137B2, “Composition and method for dual targeting in treatment of neuroendocrine tumors” (NANOPHARMACEUTICALS LLC, priority 2018, dated 2022).
Entries after “also recorded” stand apart in the source; their conditions may differ.

Experiments:
[1] = tested on: SKNF2 cell lines; experiment: Comparative examples: BG, BG derivatives, TAT derivative and co-administration versus Composition 300 in mice implanted with SKNF2 cell lines; assay type: in vivo; settings: for Percentage of Tumor Growth Suppression / Reduction of tumor viability: Dosage 3 mg/kg
Experimental: FIGS. 12a and 12b shown the effect of the control and treatment with BG, BG derivatives, thyrointegrin antagonists such as TAT derivatives, and combinations (co-administration) thereof, versus Composition 300 (BG-P-TAT) on tumor cell necrosis of mice implanted with SKNF2 cell lines.
Further, even a combination treatment of two triazole tetrac derivatives in combination delivered subcutaneously daily for three (3) weeks at 3 mg/kg only achieves a reduction of 40-50% for tumor growth and tumor viability. Similar results are obtained with treatments using benzyl guanidine and benzyl guanidine derivatives.
For example, the graph of FIG. 12b includes the effect of a triazole tetrac derivative (referred to as TAT) on tumor weight when compared with a control group (phosphate-buffered saline “PBS”). The specific derivative tested was beta cyclodextrin triazole tetrac.
Again, beta cyclodextrin triazole tetrac was the tetrac derivative used.
Composition 300 achieves approximately 80% reduction in tumor. Further, the viability of residual tumor was reduced by 80%.

[2] = target: purified integrin αvβ3 receptor (Homo sapiens, UniProt P05106+P06756); experiment: Binding affinity towards purified integrin αvβ3 receptor
Sequence of purified integrin αvβ3 receptor (P06756 31-889 limits assumed): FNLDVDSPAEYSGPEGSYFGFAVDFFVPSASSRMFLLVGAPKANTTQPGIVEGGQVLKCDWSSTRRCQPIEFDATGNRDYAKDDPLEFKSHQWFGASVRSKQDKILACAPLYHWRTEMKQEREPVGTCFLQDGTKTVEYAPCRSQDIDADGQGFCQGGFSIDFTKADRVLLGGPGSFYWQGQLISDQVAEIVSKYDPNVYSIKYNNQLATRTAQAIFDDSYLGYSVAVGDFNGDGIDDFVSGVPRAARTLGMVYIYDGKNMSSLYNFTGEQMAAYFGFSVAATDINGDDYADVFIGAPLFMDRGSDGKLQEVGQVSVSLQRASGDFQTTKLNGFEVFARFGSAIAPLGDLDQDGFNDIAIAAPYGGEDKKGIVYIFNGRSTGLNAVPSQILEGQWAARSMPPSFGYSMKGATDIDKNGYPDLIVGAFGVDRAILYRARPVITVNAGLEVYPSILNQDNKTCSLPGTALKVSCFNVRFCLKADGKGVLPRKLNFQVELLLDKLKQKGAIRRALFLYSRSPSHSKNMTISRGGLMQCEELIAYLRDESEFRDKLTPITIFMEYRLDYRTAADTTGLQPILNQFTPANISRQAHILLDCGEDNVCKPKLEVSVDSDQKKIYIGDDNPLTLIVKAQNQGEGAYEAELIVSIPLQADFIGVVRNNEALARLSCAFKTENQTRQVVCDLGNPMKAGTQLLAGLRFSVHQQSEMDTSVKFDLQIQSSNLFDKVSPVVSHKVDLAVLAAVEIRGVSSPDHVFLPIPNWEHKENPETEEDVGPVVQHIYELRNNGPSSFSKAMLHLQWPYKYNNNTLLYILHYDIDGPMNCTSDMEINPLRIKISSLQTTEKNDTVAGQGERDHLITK
Sequence of purified integrin αvβ3 receptor (P06756 891-1048 partner limits assumed): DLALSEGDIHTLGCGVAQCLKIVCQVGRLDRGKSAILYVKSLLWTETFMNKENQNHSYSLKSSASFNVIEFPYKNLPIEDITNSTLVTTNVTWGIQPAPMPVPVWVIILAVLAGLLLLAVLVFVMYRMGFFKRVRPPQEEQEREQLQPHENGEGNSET
Sequence of purified integrin αvβ3 receptor (P05106 27-788): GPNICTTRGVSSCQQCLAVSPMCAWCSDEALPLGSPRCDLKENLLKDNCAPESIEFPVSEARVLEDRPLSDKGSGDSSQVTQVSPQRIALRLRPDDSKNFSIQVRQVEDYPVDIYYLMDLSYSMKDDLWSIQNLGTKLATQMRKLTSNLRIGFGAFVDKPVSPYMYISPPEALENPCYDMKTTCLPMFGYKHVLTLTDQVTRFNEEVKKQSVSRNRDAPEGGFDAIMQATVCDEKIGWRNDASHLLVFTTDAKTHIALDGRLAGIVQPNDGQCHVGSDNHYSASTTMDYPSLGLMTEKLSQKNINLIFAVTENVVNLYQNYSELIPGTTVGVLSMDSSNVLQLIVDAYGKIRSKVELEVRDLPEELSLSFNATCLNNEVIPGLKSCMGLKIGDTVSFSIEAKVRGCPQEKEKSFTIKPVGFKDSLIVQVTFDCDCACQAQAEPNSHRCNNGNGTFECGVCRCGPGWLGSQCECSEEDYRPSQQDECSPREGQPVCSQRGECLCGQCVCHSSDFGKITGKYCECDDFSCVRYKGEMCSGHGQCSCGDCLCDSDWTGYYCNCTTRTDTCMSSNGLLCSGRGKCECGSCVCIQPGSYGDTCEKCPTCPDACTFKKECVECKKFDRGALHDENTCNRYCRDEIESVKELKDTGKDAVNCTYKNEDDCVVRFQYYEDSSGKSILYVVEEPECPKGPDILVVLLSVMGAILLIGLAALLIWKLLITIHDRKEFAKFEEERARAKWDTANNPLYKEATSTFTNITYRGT

[3] = tested on: neuroblastoma SKNF1 cells; experiment: Compositions 7a, 7b and 15 on subcutaneously implanted SKNF1 neuroblastoma tumor in female nude mice; assay type: in vivo
Experimental: The efficacy of Compositions 7a (dI-BG-P-TAT), 7b (dM-BG-P-TAT), and 15 (BG-P-PAT) were tested using neuroblastoma SKNF1 cells implanted into nude female mice similar to the examples discussed above for Composition 300 (BG-P-TAT).
Further, to compare the histopathological changes in tumors of untreated and treated groups, tumors were harvested, fixed, and stained with hematoxylin and eosin (H&E). Necrosis at low magnification of tumors from animals treated with compounds 7a, 7b, and 15 versus control is seen clearly as shown in Figure. […] On the other hand, tumors from the untreated group had mostly viable tumor cells. […]

[4] = tested on: SKNF1 neuroblastoma tumors; experiment: Cy5 fluorescence imaging of subcutaneously implanted SKNF1 tumor in athymic female mice; assay type: in vivo; settings: Cy5 labeled; 1-24 hours post-administration; compared with triazole tetrac derivative alone or benzyl guanidine derivative alone
Experimental: Athymic female mice were implanted twice each with 10^6 cells/implant. The SKNF1 cell line was used with subcutaneous xenografts.
Group 1 consisted of three mice and were treated with PEG-TAT-dye (Cy5). Group 2 consisted of three mice and were treated with PEG-BG-dye (Cy5). Group 3 consisted of three mice and were treated with TAT-PEG-BG-dye (Cy5) wherein the TAT and BG were covalently linked with a PEG linker as compound 300. The treatment groups are shown below:
Fluorescence imaging (Cy5) was conducted 1 hour, 2 hours, 4 hours, 6 hours, and 24 hours post-administration. Imaging results are shown in FIGS. 13a and 13b, in which the tumor location is circled in yellow and the Cy5 dye appears as red.

[5] = tested on: neuroblastoma SKNF2 cells; experiment: Composition 300 dose response on subcutaneously implanted SKNF2 neuroblastoma tumor in female nude mice; assay type: in vivo; settings: for tumor shrinkage (tumor weight) / tumor cell viability / tumor cell necrosis rate: 15 days; for tumor cell viability: control 70-75%
Experimental: The efficacy of Composition 300 (BG-P-TAT) was tested using neuroblastoma SKNF2 cells implanted into nude female mice.
Fifteen (15) female nude mice were implanted with twice with 10^6 cells/implant. The SKNF2 cell line was used with subcutaneous xenografts.
Eight (8) days following implantation, the mice were divided into four groups receiving the following treatment for 15 days:
Following fifteen (15) days of treatment, tumors were collected in order to evaluate histopathology, and the following results were collected: […]

[6] = tested on: SKNF2 cell lines; experiment: Comparative examples: BG, BG derivatives, TAT derivative and co-administration versus Composition 300 in mice implanted with SKNF2 cell lines; assay type: in vivo; settings: 3 mg/kg subcutaneously daily for 15 days (FIGS. 12a, 12b)

## N=C(N)NCc1ccccc1 [BG, benzyl guanidine]
[1]
  Percentage of Tumor Growth Suppression: 40-50%
  Reduction of tumor viability: 40-50%

## N=C(N)NCc1ccc(OCCOCCOCCOCCOCCOCCOCCOCCN2CCN(CCCOc3c(I)cc(Oc4c(I)cc(CC(=O)O)cc4I)cc3I)CC2)cc1 [Composition 15]
[2]
  IC50: 0.3 nM
[2]; αvβ3 binding
  fold increase in binding affinity relative to BG-P-TAT: ~30 fold
[3]; 3 mg/kg subcutaneously, 20 days, control rose from 175 mm^3 to 1000 mm^3
  tumor volume over twenty days: no substantial increase
[3]; 3 mg/kg, 20 days of treatment
  areas of necrosis, fibrosis and cell debris (H&E staining): approximately 98%
  decrease in tumor weight versus control: 90%

## N=C(N)NCc1ccc(OCCOCCOCCOCCOCCOCCOCCn2cc(COc3c(I)cc(Oc4c(I)cc(CC(=O)O)cc4I)cc3I)nn2)cc1 [Composition 300, 2-(4-(4-((1-(20-(4-(guanidinomethyl)phenoxy)-3,6,9,12,15,18-hexaoxaicosyl)-1H-1,2,3-triazol-4-yl)methoxy)-3,5-diiodophenoxy)-3,5-diiodophenyl)acetic acid]
[4]
  retention time within the tumor (Cy5 fluorescence): marked improvement
  uptake into the SKNF1 neuroblastoma tumors (Cy5 fluorescence): marked improvement; also recorded: highest intensity accumulation
[2]
  IC50: 10.3 nM
[5]; 1 mg/kg daily
  tumor shrinkage (tumor weight): 60%
  tumor cell viability: 50%
[5]; 1 mg/kg
  tumor cell necrosis rate: approximately 50%
[5]; 3 mg/kg daily
  tumor shrinkage (tumor weight): 80%
  tumor cell viability: 20
[5]; 3 mg/kg
  tumor cell necrosis rate: approximately 80%
[5]; 10 mg/kg daily
  tumor shrinkage (tumor weight): 100%
  tumor cell viability: 0.00%
[5]; 10 mg/kg group, start approximately 825 mm^3, control rose to 1050 mm^3
  tumor volume after 15 days of treatment: ~100 mm^3
[5]; 10 mg/kg
  tumor cell necrosis rate: ~100%
[5]; 1, 3 and 10 mg/kg subcutaneously daily for 15 days, versus control animals
  effect on animal body weight: no effect; also recorded: no significant changes
[5]; at the 3 and 10 mg/kg doses (FIG. 11 legend)
  cancer cell necrosis: 80-100%
[5]; treated mice, 1-10 mg/kg
  abnormal animal head movements (circling) seen in control mice: disappearance
[5]; treatment groups 1-10 mg/kg versus control
  tumor vasculature: clearly diminished
[1]; 3 mg/kg
  reduction of viability of residual tumor: 80%
[1]; 3 mg/kg subcutaneously daily for 15 days (FIGS. 12a, 12b), listed as BG-P-TAT
  tumor weight shrinkage / reduction versus control (PBS): 80%
[1]
  Percentage of Tumor Growth Suppression: 80-90%
  Reduction of tumor viability: 80-90%

## N=C(N)NCc1cccc([131I])c1 [MIBG, meta-iodobenzylguanidine]
[1]
  Percentage of Tumor Growth Suppression: 40-50%
  Reduction of tumor viability: 40-50%

## beta cyclodextrin triazole tetrac [TAT]
[6]
  tumor weight shrinkage / reduction versus control (PBS): 40-50%
[1]
  Percentage of Tumor Growth Suppression: 40-50%
  Reduction of tumor viability: 40-50%
